The results in this text go back to patent EP1069898B1, “TOPICAL ANTISEPTIC COMPOSITIONS AND METHODS” (MARGOLIN, Solomon B., priority 1998, dated 1999).

Series [1] is described as follows: Primary rabbit acute eye irritation test (Draize method). Particulars: 2.0% sterile aqueous solution, 0.1 ml. per eye; six albino rabbits; examined up to 10 days. It is filed as in vivo. How it is done:
The eyes were carefully examined at 1.0 minutes, 30 minutes, and 3 hours after applying the solution, and then repeatedly examined for 10 days after the application of the pirfenidone solution (0.1 ml. per eye).
The eyes were carefully examined at 1, 3, 8, 24, and 48 hours and carefully re-examined daily for 10 days after the application of the ointment (100 milligrams per eye).

A further series deals with Escherichia coli. The experiment in a line: Preliminary antimicrobial test, plate growth score. It is filed as cell-based.
In another series the test system is Pseudomonas aeruginosa. The experiment in a line: Preliminary antimicrobial test, plate growth score. It is filed as cell-based. The arrangement: key: 1=very slight; 2=slight; 3=slight to moderate; 4=moderate; 10=total plate growth (maximal growth).
The subject of another series is Bacillus subtilis. Briefly: Preliminary antimicrobial test, plate growth score. The class given is cell-based.
In another series the test system is Aspergillus niger. The experiment in a line: Preliminary antimicrobial test, plate growth score. The class given is cell-based.
For the next series, the system named is Proteus vulgaris. Briefly: Preliminary antimicrobial test, plate growth score. It is filed as cell-based.
The subject of another series is Staphylococcus aureus. Briefly: Preliminary antimicrobial test, plate growth score. It is filed as cell-based.
Series [2] in a line: Storage stability (chemical assays and physical characteristics). The class given is physicochemical. Particulars: crystalline; 25 degrees Centigrade. An excerpt:
A critical feature of the compositions of this invention is the chemical stability of the active ingredient(s), pirfenidone and/or related compounds. Crystalline pirfenidone is stable at room temperature (i.e., 25 degrees Centigrade) for more than five years. The formulations described above are stable for two years or longer at 25 degrees Centigrade (room temperature), based upon chemical assays and upon physical characteristics (color, plasticity, active ingredient dispersion and suspension).

In another series the test system is Candida albicans. Briefly: Preliminary antimicrobial test, plate growth score. It is filed as cell-based. More on the design: key: 1=very slight; 2=slight; 3=slight to moderate; 4=moderate; 10=total plate growth (maximal growth).
In series [3] the test system is Trychophton mentagrophytes. The experiment in a line: Preliminary antimicrobial test, plate growth score. It is filed as cell-based. More on the design: key: 1=very slight; 2=slight; 3=slight to moderate; 4=moderate; 10=total plate growth (maximal growth).
[4] abbreviates: Pirfenidone concentration 5.0 wt.%.
[5] abbreviates: Pirfenidone concentration 10.0 wt.%.

As to `Cc1ccc(=O)n(-c2ccccc2)c1` [Pirfenidone, 5-methyl-1-phenyl-2-(1H) pyridone], in series [1], the “eye irritation (hyperemia, edema, eye discomfort, chemotaxis)” value was “failed to cause any irritation”. For the same molecule, the “GROWTH SCORES (0 TO 10)” value in the series with Escherichia coli (setting [4]) was found to be 0; in the series on Escherichia coli (setting [5]), 0; in the series with Pseudomonas aeruginosa (Pirfenidone concentration 2.0 wt.%), 1; in the series with Pseudomonas aeruginosa (setting [4]), 0; in the series on Pseudomonas aeruginosa (setting [5]), 0; in the series with Bacillus subtilis (setting [4]), 0. Also, the “GROWTH SCORES (0 TO 10)” value in the series with Bacillus subtilis (setting [5]), in the series on Aspergillus niger (setting [4]), with Aspergillus niger (setting [5]), in the series on Proteus vulgaris (setting [4]), in the series with Proteus vulgaris (setting [5]) and in the series on Staphylococcus aureus (setting [4]) was 0 throughout. Further, the “GROWTH SCORES (0 TO 10)” value worked out at 0 in the series on Staphylococcus aureus (setting [5]); 2 in the series on Candida albicans (setting [4]); 0 in the series on Candida albicans (setting [5]); 2 in series [3] (setting [4]); 0 in series [3] (setting [5]). The “stable at room temperature” value in series [2] is given as “more than five”.
